Reference: patent publication US20170027968A1, “ANTI-CANCER AGENT” (KTN BIOTEC, INC., priority 2013, published 2017)

How the values were obtained:
[1] = system: NCI-H28 (human malignant mesothelioma cell); test: TUNEL staining, NCI-H28; assay type: cell-based; conditions: NCI-H28, 30 μM and 100 μM, 48 hr; FIG. 4
Description: (§1) NCI-H28 which is a cell line of human malignant pleural mesothelioma and […] which is a cell line of human non-malignant mesothelioma were used. These cells were purchased from American Type Culture Collection (Manassas, Va., USA). The cells were cultured in Roswell Park Memorial Institute (RPMI)-1640 medium added with 0.003% (w/v) L-glutamine. The cells were incubated in a medium added with 10% (v/v) heat-inactivated bovine serum, penicillin (final concentration, 100 U/ml) and streptomycin (final concentration, 0.1 mg/ml) in a humid environment under 5% CO2 and 95% air at 37° C. To detect in situ DNA fragmentation to be the index of apoptosis, TUNEL staining was performed using In Situ Apoptosis Detection Kit (Takara Bio; Otsu, Japan). The cells fixed and membrane-permeabilized were incubated with terminal deoxynucleotidyl transferase and fluorescein isothiocyanate (FITC)-deoxyuridinetriphosphate at 37° C. for 90 min. FITC signal was visualized by a confocal laser microscope (LSM 510; Carl Zeiss Co., Ltd., Oberkochen, Germany). The cells used were […] (human non-malignant mesothelioma cell) and NCI-H28 (human malignant mesothelioma cell), after a treatment for 48 hr by changing the concentration of DPPE to 0, 30 μM and 100 μM.

[2] = system: NCI-H28 (human malignant mesothelioma cell); test: Cell viability assay (MTT), NCI-H28; assay type: cell-based; conditions: NCI-H28, 1, 10, 100 μM, 24 hr or 48 hr; FIG. 3B
Description: (§2) NCI-H28 which is a cell line of human malignant pleural mesothelioma and Met5A which is a cell line of human non-malignant mesothelioma were used. These cells were purchased from American Type Culture Collection (Manassas, Va., USA). The cells were cultured in Roswell Park Memorial Institute (RPMI)-1640 medium added with 0.003% (w/v) L-glutamine. The cells were incubated in a medium added with 10% (v/v) heat-inactivated bovine serum, penicillin (final concentration, 100 U/ml) and streptomycin (final concentration, 0.1 mg/ml) in a humid environment under 5% CO2 and 95% air at 37° C.
(§3) The cell viability was evaluated according to previous report (Nogi Y, et al., Cell Physiol Biochem 2012; 30: 61-74.) by using 3-(4,5-dimethyl-2-thiazolyl)-2,5-diphenyl-2H-tetrazolium bromide (MTT). The measurement was performed by treating Met5A (human non-malignant mesothelioma cell) and NCI-H28 (human malignant mesothelioma cell) for 24 hr or 48 hr while changing the concentration of DPPE to 0, 1 μM, 10 μM and 100 μM.

[3] = system: Met5A (human non-malignant mesothelioma cell); test: Cell viability assay (MTT), Met5A; assay type: cell-based; conditions: Met5A, 1, 10, 100 μM, 24 hr or 48 hr; FIG. 3A
Description: as §2, §3

[4] = system: Met5A (human non-malignant mesothelioma cell); test: TUNEL staining, Met5A; assay type: cell-based; conditions: 30 μM and 100 μM, 48 hr, FIG. 4
Description: as §1

[5] = molecular target: T1, Human PTP1B (GST fused) (Homo sapiens, UniProt P18031); test: Assay of PTP1B activity under cell-free conditions (p-NPP substrate); conditions: 100 μM, preincubated 37° C. 30 min, p-NPP 10 mM 60 min, FIG. 1B
T1 sequence (P18031 1-435): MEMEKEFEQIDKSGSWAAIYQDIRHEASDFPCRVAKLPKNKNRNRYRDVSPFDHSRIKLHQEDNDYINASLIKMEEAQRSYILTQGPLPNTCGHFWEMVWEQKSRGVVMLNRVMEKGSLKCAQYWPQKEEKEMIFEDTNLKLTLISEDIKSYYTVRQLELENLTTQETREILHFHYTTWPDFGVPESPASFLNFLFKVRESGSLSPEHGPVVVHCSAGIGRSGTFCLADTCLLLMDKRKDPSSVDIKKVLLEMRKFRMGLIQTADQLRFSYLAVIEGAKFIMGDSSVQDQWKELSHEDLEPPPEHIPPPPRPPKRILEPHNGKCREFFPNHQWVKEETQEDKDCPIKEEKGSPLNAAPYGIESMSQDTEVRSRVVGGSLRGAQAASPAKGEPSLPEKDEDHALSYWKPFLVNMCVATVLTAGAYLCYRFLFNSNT
Description: (§4) Human recombinant PP2A was purchased from Millipore (Billerica, Mass., USA). Human PTP1B was cloned to pGEX-6P-3 vector having a GST tag on the NH2 terminal, and expressed in competent E. coli 3L21 (DE3) suitable for transformation and protein expression. GST fused PTP1B was affinity-purified using glutathione sepharose 4B (GE Healthcare Bio-Science KK, Tokyo, Japan). They were reacted with p-nitrophenylphosphate (p-NPP) (Sigma, St. Louis, Mo., USA) as a substrate, and each phosphatase activity was measured. PP2A (0.2 U/well) or PTP1B (1 mg/well) was preincubated in a reaction medium at 37° C. for 30 min. in the presence and absence of a phosphatase inhibitor (okadaic acid; 2 nM, sodium vanadate; 1 μM) and, phosphatidylethanolamine (DAPE, DLPE, DOPE, DPPE; 100 μM, all obtained from Avanti Polar Lipids, Inc. (Alabaster, Ala., USA)). • reaction medium for PP2A: 50 mM Tris-HCl, 0.1 mM EGTA, 0.1% (v/v) 2-mercaptoethanol, pH 7.0 • reaction medium for PTP1B: 50 mM HEPES, 1 mM EDTA, 50 mM NaCl, 1 mM dithiothreitol, pH 7.2
(§5) Then, p-NPP (0.5 mM for PP2A, 10 mM for PTP1B) was added to the reaction medium and incubation was continued for 60 min. The reaction was discontinued by adding 0.1N NaOH. Dephosphorylated p-NPP, namely, p-NP, was quantified at absorbance 405 nm by using SpectraMax PLUS384 (Molecular Devices, Sunnyvale, Calif., USA).

[6] = system: Human recombinant PP2A; test: Assay of PP2A activity under cell-free conditions (p-NPP substrate); conditions: 100 μM, preincubated 37° C. 30 min, p-NPP 0.5 mM 60 min, FIG. 1A
Description: as §4, §5

## CCCCCC/C=C\CCCCCCCC(=O)OC[C@H](COP(=O)(O)OCCN)OC(=O)CCCCCCC/C=C\CCCCCC [DPPE, 1,2-dipalmitoleoyl-sn-glycero-3-phosphoethanolamine]
[1]
  apoptosis (TUNEL-stained cells relative to total cells): induces apoptosis of the malignant mesothelioma cell
[2]
  cell survival rate (MTT): induces concentration-dependent cell death in the malignant mesothelioma cell
[3]
  cell survival rate (MTT): almost uninfluential on the non-malignant mesothelioma cell
[4]
  apoptosis (TUNEL-stained cells relative to total cells): does not induce apoptosis of the non-malignant mesothelioma cell
[5]
  PTP1B activation enhancing action (phosphatase activity relative to control): PTP1B activation enhancing action
[6]
  PP2A activation enhancing action (phosphatase activity relative to control): strong PP2A activation enhancing action
